Earlier results, collected in US6737430B2, “Mutual prodrug of amlodipine and atorvastatin” (Pfizer, Inc., priority 2000, dated 2004).

Columns and labels:
[1] = test system: calcium channel; settings: cited from earlier work
[2] = test system: smooth muscle cell migration; settings: cited from earlier work

CCOC(=O)C1=C(COCCN)NC(C)=C(C(=O)OC)[C@H]1c1ccccc1Cl (single isomer, unassigned) [(R) enantiomer, R(−)-amlodipine]
calcium channel blocking activity [1]: little or no calcium channel blocking activity | inhibition of smooth muscle cell migration [2]: potent inhibitor of smooth muscle cell migration
